Experimental data: US6300317A, “Self-assembling polynucleotide delivery system” (The Regents of the University of California, priority 1995, dated 2001)
Where two headings read alike, the source gives them in different places.

Key:
[1] = tested on: calf thymus DNA; experiment: Ethidium bromide displacement assay, binding of bis-acridines to double-stranded DNA; conditions: computed from ethidium bromide displacement (IC50), noncooperative competitive binding model; read-out: Dissociation Constants of the Bis-acridines from Calf Thymus DNA
Procedure: The affinity of the bis-acridines for calf thymus DNA was calculated from the displacement of ethidium bromide from double stranded nucleic acids (Nielsen, supra). Ethidium displacement was monitored by the decrease of the ethidium bromide fluorescence (ex.=540 nm, em.=610 nm) that occurs when it is released from DNA. The association constants of the bis-acridines relative to ethidium bromide are calculated from their IC50. In this study, spermidine bis-acridine trihydrochloride (SBA.cndot.3HCl) synthesized as described (Nielsen, supra), was used as the reference compound. As a result of the loss of one of its three positive charges, a slight but significant decrease in affinity is observed when the N^4 amino group of spermidine bis-acridine is engaged in an amide bond with the targeting carbohydrate in compound 21 (Gal-bA.cndot.2 HCl). However, we predict an increase in affinity when spermidine bis-acridine is linked to the highly positively charged NLS peptide SEQ ID NO:1. G. Karup et al., Int J Peptide Protein Res (1988) 32:331-343.

[2] = tested on: calf thymus DNA; conditions: constant used to compute the bis-acridine binding constants; read-out: intrinsic dissociation constant for ethidium bromide; cited from earlier work

SMILES | Kd [1] [µM] | Kd [2] [µM]
O=C(CCCCCS[C@@H]1O[C@H](CO)[C@H](O)[C@H](O)[C@H]1O)NCCCC[C@H](NC(=O)CCCCCS[C@@H]1O[C@H](CO)[C@H](O)[C@H](O)[C@H]1O)C(=O)N[C@@H](CCCCNC(=O)CCCCCS[C@@H]1O[C@H](CO)[C@H](O)[C@H](O)[C@H]1O)C(=O)N(CCCCNc1c2ccccc2nc2ccccc12)CCCNc1c2ccccc2nc2ccccc12 [Gal3 Lys2 -bA] | 5.4 | 
c1ccc2c(NCCCCNCCCNc3c4ccccc4nc4ccccc34)c3ccccc3nc2c1 [SBA · 3HCl, N,N'-bis-(9-acridinyl)-4-aza-1,8-diaminooctane] | 0.024 | 
CC[n+]1c(-c2ccccc2)c2cc(N)ccc2c2ccc(N)cc21 [ethidium bromide] |  | 5.3
